Biological target: T1, human EGF-R (Homo sapiens, UniProt P00533)
T1 construct: expressed in transfected cells; host or cells: F/L-HERc cells (murine IL-3-dependent FDC-P1 line transduced with LXSN retroviral vector carrying human EGF-R cDNA; packaging line GP+E86)
Experiment: Inhibition of the EGF-dependent proliferation of F/L-HERc cells (Cell Titer 96 proliferation assay)
Type: cell-based
Details: F/L-HERc cells (murine IL-3-dependent line expressing human EGF-R), stimulated with EGF 20 ng/ml, 48 hours at 37° C.
Excerpt: A cell line of murine origin dependent on interleukin-3-(IL-3) which was genetically modified to express functional human EGF-R was used here. The proliferation of these cells known as F/L-HERc can therefore be stimulated either by murine IL-3 or by EGF (cf. von Rüden, T. et al. in EMBO J. 7, 2749-2756 (1988) and Pierce, J. H. et al. in Science 239, 628-631 (1988)).
The starting material used for the F/L-HERc cells was the cell line FDC-P1, the production of which has been described by Dexter, T. M. et al. in J. Exp. Med. 152, 1036-1047 (1980). Alternatively, however, other growth-factor-dependent cells may also be used (cf. for example Pierce, J. H. et al. in Science 239, 628-631 (1988), Shibuya, H. et al. in Cell 70, 57-67 (1992) and Alexander, W. S. et al. in EMBO J. 10, 3683-3691 (1991)). […]
In order to determine the inhibitory activity of the compounds according to the invention the relative cell number was measured in O.D. units using the Cell Titer 96™ Aqueous Non-Radioactive Cell Proliferation Assay (Promega). […]

T1 sequence (P00533 25-1210): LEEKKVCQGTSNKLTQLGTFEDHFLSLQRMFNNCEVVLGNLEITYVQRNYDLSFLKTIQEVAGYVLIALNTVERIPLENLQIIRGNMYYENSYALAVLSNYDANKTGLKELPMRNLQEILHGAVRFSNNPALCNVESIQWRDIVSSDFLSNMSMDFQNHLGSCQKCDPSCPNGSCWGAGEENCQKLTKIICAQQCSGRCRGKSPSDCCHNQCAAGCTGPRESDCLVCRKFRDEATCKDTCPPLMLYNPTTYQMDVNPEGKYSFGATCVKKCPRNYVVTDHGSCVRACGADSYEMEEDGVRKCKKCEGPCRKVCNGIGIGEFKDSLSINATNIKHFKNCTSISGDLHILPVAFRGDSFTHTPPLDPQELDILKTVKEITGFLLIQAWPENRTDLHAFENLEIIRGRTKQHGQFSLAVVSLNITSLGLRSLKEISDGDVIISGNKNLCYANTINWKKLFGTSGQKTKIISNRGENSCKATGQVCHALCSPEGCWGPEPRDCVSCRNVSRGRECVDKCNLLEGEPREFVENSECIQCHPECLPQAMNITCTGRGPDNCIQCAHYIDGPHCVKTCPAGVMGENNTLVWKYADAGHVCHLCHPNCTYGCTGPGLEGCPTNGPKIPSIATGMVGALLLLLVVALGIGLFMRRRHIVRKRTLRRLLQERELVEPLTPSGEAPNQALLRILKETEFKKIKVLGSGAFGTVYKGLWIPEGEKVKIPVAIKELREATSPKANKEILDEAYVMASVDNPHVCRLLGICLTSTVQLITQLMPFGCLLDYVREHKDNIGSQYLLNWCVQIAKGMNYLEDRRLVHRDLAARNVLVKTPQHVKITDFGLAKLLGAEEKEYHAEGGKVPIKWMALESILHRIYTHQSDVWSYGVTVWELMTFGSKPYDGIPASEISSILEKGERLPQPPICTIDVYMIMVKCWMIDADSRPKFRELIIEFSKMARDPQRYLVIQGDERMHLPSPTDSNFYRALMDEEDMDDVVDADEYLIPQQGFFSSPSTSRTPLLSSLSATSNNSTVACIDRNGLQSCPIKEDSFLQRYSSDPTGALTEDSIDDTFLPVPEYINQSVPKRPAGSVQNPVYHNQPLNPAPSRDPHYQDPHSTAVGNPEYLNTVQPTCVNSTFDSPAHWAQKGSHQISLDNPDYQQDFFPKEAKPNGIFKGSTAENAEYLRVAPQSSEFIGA

IC50: 2 nM
SMILES: COC[C@H]1CN(CC=CC(=O)Nc2cc3c(Nc4ccc(F)c(Cl)c4)ncnc3cc2OCC2CC2)CC(=O)O1 [Example 1, 4-[(3-chloro-4-fluoro-phenyl)amino]-6-{[4-((R)-2-methoxymethyl-6-oxo-morpholin-4-yl)-1-oxo-2-buten-1-yl]amino}-7-cyclopropylmethoxy-quinazoline]
